20 molecules from patent US11040035B2, “3-oxo-2,6-diphenyl-2,3-dihydropyridazine-4-carboxamides” (BAYER PHARMA AKTIENGESELLSCHAFT, priority 2016, dated 2021) can be followed below.

Read-outs that look alike come from different tables or passages of the source.

Data set [1] concerns the target T1, AHR (Homo sapiens, UniProt P35869).
T1 sequence (P35869 11-848): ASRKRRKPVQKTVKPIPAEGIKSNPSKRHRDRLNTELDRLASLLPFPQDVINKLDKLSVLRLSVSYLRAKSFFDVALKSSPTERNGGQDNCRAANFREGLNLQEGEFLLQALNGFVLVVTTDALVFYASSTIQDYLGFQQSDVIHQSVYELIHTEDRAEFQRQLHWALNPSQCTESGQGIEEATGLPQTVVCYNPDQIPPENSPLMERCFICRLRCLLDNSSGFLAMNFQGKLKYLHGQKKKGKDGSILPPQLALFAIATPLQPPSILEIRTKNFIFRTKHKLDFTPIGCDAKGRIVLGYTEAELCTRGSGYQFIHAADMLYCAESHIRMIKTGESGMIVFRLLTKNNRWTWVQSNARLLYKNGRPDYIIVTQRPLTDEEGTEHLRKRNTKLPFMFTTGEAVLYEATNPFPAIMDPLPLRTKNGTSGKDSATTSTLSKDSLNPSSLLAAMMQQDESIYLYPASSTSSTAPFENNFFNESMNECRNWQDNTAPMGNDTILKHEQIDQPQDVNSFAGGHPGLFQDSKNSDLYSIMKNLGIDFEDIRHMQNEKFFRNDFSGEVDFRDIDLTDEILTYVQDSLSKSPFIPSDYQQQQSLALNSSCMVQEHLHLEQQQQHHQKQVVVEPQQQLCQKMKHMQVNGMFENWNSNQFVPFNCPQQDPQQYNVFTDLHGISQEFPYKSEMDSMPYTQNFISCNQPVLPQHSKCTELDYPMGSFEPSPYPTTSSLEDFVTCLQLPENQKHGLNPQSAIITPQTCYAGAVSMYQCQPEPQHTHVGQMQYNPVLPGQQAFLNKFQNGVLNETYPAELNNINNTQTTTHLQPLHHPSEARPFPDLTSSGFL
Kind of data set: In vitro assay 1: antagonism in human cell line (transactivation assay, kynurenic acid prestimulated). To be noted: Assay 1: AHR-luc Hum Antagonism IC50 [M], 150 μM kynurenic acid, 20 hours, firefly luciferase.

The target in data set [2] is T1, AHR. Kind of data set: In vitro assay 2: agonism in human cell line (transactivation assay). To be noted: Assay 2: AHR-luc Hum Agonism IC50 [M], no kynurenic acid, 20 hours, firefly luciferase.
The subject of data set [3] is AHR-regulated gene CYP1A1. Kind of data set: In vitro assay 3: AHR-regulated CYP1A1 expression in human cell line (U937, qPCR). (In general: Real-time PCR tracks product formation cycle by cycle.)
Experimental: In Vitro Assay 3: AHR-Regulated CYP1A1 Expression in Human Cell Line
To assess the AHR inhibitory activity of the substances described in this application, the ability thereof to antagonise ligand-induced AHR gene regulation in a dose-dependent manner was quantified. For this purpose, quantitative PCR analysis was used to determine expression of the AHR-regulated gene CYP1A1 in a human monocytic U937 cell line upon stimulation with 200 μM KA in the presence and absence of AHR inhibitor. U937 cells were sown at a concentration of 2×10^5 cells/well in 100 ul of growth medium (RPMI 1640, 20% FCS) in 96-well microtitre plates. CYP1A1 expression was induced with 200 μM KA (positive control) in the presence or absence of the substances for 6 hours. Human U937 cells were typically incubated with eight different concentrations of the substances (1 nM, 3 nM, 10 nM, 30 nM, 100 nM, 300 nM, 1 μM and 3 μM) and analyzed in duplicate on the same microtitre plate. After stimulation, cells were lysed with Nucleic Acid Lysis Solution (#4305895, Applied Biosystems) and RNA was isolated using the 6100 Nucleic Acid Preparation Station (Applied Biosystems) and reverse-transcribed to cDNA using SuperScript VILO cDNA synthesis kit (#11754-250, Invitrogen). Unstimulated cells were used as the negative control. Taqman probes for human CYP1A1 (Hs01054797_g1) and human HPRT (Hs02800695_m1) were used to analyze fold expression of CYP1A1 of HPRT. Quantitation was performed on a Taqman SDS7900HT.
Where [4] appears, read: Homo sapiens, U-937, 6 h, read-out: Assay 3: Hum CYP1A1 Antagonism IC50 [M], U937 cells, 200 μM KA, 6 hours, qPCR.
The mark [5] stands for this setting: read-out: Assay 3: Hum CYP1A1 Antagonism IC50, U937 cells, 200 μM KA, 6 hours, qPCR.

Broadly, the IC50 is the concentration that gives 50% inhibition. Turning to `O=C(N[C@H]1CCC[C@H]1O)c1cc(-c2ccc(Cl)cc2)nn(-c2cccc(F)c2)c1=O` [Example 111, 6-(4-Chlorophenyl)-2-(3-fluorophenyl)-N-[(1S,2R)-2-hydroxycyclopentyl]-3-oxo-2,3-dihydropyridazine-4-carboxamide], the 50% inhibitory concentration (IC50) is 2.03e-08 M against AHR [1], more than 2e-05 M on AHR [2] and 2.91e-08 M in data set [3] (setting [4]).
For `CC(C)(C)[C@@H](CO)NC(=O)c1cc(-c2ccc(Cl)cc2)nn(-c2cccc(F)c2)c1=O` [Example 272, 6-(4-Chlorophenyl)-2-(3-fluorophenyl)-N-[(2S)-1-hydroxy-3,3-dimethylbutan-2-yl]-3-oxo-2,3-dihydropyridazine-4-carboxamide], in that order: 3.6e-08 M, more than 2e-05 M and 2.37e-08 M.
Take `O=C(NC(CO)C(F)(F)F)c1cc(-c2ccc(OC(F)(F)F)cc2)nn(-c2cccc(F)c2)c1=O` (stereo not drawn) [Example 169, 2-(3-Fluorophenyl)-3-oxo-N-(1,1,1-trifluoro-3-hydroxypropan-2-yl)-6-[4-(trifluoromethoxy)phenyl]-2,3-dihydropyridazine-4-carboxamide]: the values for the IC50 (at AHR [1]; against AHR [2]; in data set [3] (setting [4])) were 1.11e-08 M, more than 2e-05 M and 1.35e-08 M, respectively.
Regarding `O=C(NC(CO)C1CC1)c1cc(-c2ccc(C(F)(F)F)cc2)nn(-c2cccc(F)c2)c1=O` (racemic) [Example 267, N-[(1RS)-1-Cyclopropyl-2-hydroxyethyl]-2-(3-fluorophenyl)-3-oxo-6-[4-(trifluoromethyl)phenyl]-2,3-dihydropyridazine-4-carboxamide], the IC50 against AHR [1] was 2.9e-08 M; against AHR [2], more than 2e-05 M; in data set [3] (setting [4]) it was 1.05e-08 M.
The corresponding values for `O=C(N[C@@H]1CCCC[C@H]1O)c1cc(-c2ccc(Cl)cc2)nn(-c2cccc(F)c2)c1=O` [Example 164, 6-(4-Chlorophenyl)-2-(3-fluorophenyl)-N-[(1R,2R)-2-hydroxycyclohexyl]-3-oxo-2,3-dihydropyridazine-4-carboxamide] are 5.96e-07 M, more than 2e-05 M and 2e-06 M.
For `C[C@@H](CO)CNC(=O)c1cc(-c2ccc(C(F)(F)F)cc2)nn(-c2cccc(F)c2)c1=O` (single isomer, unassigned) [Example 329], in that order: 2.8e-08 M, more than 2e-05 M and 3.22e-08 M.
`COc1ccc(-c2cc(C(=O)NCC(O)C(F)(F)F)c(=O)n(-c3cccc(F)c3)n2)cc1` (single isomer, unassigned) [Example 127, 2-(3-Fluorophenyl)-6-(4-methoxyphenyl)-3-oxo-N-(3,3,3-trifluoro-2-hydroxypropyl)-2,3-dihydropyridazine-4-carboxamide]: the IC50 was 4.05e-08 M at AHR [1], more than 2e-05 M against AHR [2] and 6.08e-08 M in data set [3] (setting [5]).
`C[C@H](NC(=O)c1cc(-c2ccc(C(F)F)cc2)nn(-c2cccc(F)c2)c1=O)C(C)(C)O` [Example 383, 6-[4-(difluoromethyl)phenyl]-2-(3-fluorophenyl)-N-[(2S)-3-hydroxy-3-methylbutan-2-yl]-3-oxo-2,3-dihydropyridazine-4-carboxamide]: the IC50 is 2.1e-08 M against AHR [1], more than 2e-05 M at AHR [2] and 3.4e-08 M in data set [3] (setting [4]).
The corresponding values for `CC(CCO)NC(=O)c1cc(-c2ccc(C(F)(F)F)cc2)nn(-c2cccc(F)c2)c1=O` (racemic) [Example 253, 2-(3-Fluorophenyl)-N-[(2RS)-4-hydroxybutan-2-yl]-3-oxo-6-[4-(trifluoromethyl)phenyl]-2,3-dihydropyridazine-4-carboxamide] are 2.89e-08 M, more than 2e-05 M and 3.62e-08 M.
For `C[C@@H](CO)NC(=O)c1cc(-c2ccc(C(F)(F)F)cc2)nn(-c2cccc(F)c2)c1=O` [Example 237, 2-(3-Fluorophenyl)-N-[(2S)-1-hydroxypropan-2-yl]-3-oxo-6-[4-(trifluoromethyl)phenyl]-2,3-dihydropyridazine-4-carboxamide], in that order: 1.23e-08 M, more than 2e-05 M and 2.46e-08 M.
For `O=C(NCC(O)C(F)(F)F)c1cc(-c2ccc(Cl)cc2)nn(-c2cccc(F)c2)c1=O` (stereo not drawn) [Example 25, 6-(4-Chlorophenyl)-2-(3-fluorophenyl)-3-oxo-N-(3,3,3-trifluoro-2-hydroxypropyl)-2,3-dihydropyridazine-4-carboxamide], in that order: 3.75e-08 M, more than 2e-05 M and 5.86e-08 M.
Turning to `O=C(NC(CO)CF)c1cc(-c2ccc(Cl)cc2)nn(-c2cccc(F)c2)c1=O` (racemic) [Example 323, 6-(4-chlorophenyl)-N-[(2RS)-1-fluoro-3-hydroxypropan-2-yl]-2-(3-fluorophenyl)-3-oxo-2,3-dihydropyridazine-4-carboxamide], the figures for the IC50 (at AHR [1]; at AHR [2]; in data set [3] (setting [4])) were 2.43e-08 M, more than 2e-05 M and 3.2e-08 M, respectively.
The corresponding values for `O=C(NC(CO)CO)c1cc(-c2ccc(C(F)(F)F)cc2)nn(-c2cccc(F)c2)c1=O` [Example 250, N-(1,3-Dihydroxypropan-2-yl)-2-(3-fluorophenyl)-3-oxo-6-[4-(trifluoromethyl)phenyl]-2,3-dihydropyridazine-4-carboxamide] are 4.69e-08 M, more than 2e-05 M and 7.24e-08 M.
The corresponding values for `C[C@H](NC(=O)c1cc(-c2ccc(Cl)cc2)nn(-c2cccc(F)c2)c1=O)C(C)(C)O` [Example 392, 6-(4-chlorophenyl)-2-(3-fluorophenyl)-N-[(2S)-3-hydroxy-3-methylbutan-2-yl]-3-oxo-2,3-dihydropyridazine-4-carboxamide] are 2.6e-08 M, more than 2e-05 M and 5.7e-08 M.
On to `CC(C)(O)C(NC(=O)c1cc(-c2ccc(C(F)(F)F)cc2)nn(-c2cccc(F)c2)c1=O)C(F)(F)F` (single isomer, unassigned; (-)) [Example 394, (−)-2-(3-fluorophenyl)-3-oxo-N-(1,1,1-trifluoro-3-hydroxy-3-methylbutan-2-yl)-6-[4-(trifluoromethyl)phenyl]-2,3-dihydropyridazine-4-carboxamide], for which the values for the concentration for half-maximal inhibition (IC50) (on AHR [1]; against AHR [2]; in data set [3] (setting [4])) were 2.8e-08 M, more than 2e-05 M and 9.5e-08 M, respectively.
For `CC(C)(CO)NC(=O)c1cc(-c2ccc(Cl)cc2)nn(-c2cccc(F)c2)c1=O` [Example 186, 6-(4-Chlorophenyl)-2-(3-fluorophenyl)-N-(1-hydroxy-2-methylpropan-2-yl)-3-oxo-2,3-dihydropyridazine-4-carboxamide], in that order: 1.88e-07 M, more than 2e-05 M and 1.34e-07 M.
For `CC(CCO)NC(=O)c1cc(-c2ccc(C(F)(F)F)cc2)nn(-c2cccc(F)c2)c1=O` (single isomer, unassigned; (+)) [Example 254, (+)-2-(3-Fluorophenyl)-N-(4-hydroxybutan-2-yl)-3-oxo-6-[4-(trifluoromethyl)phenyl]-2,3-dihydropyridazine-4-carboxamide], the half-maximal inhibitory concentration (IC50) against AHR [1] is 1.1e-08 M; at AHR [2] it was more than 2e-05 M; in data set [3] (setting [5]), 3.01e-08 M.
For the molecule `O=C(N[C@H]1COC[C@H]1O)c1cc(-c2ccc(Cl)cc2)nn(-c2cccc(F)c2)c1=O` [Example 166, 6-(4-Chlorophenyl)-2-(3-fluorophenyl)-N-[(3S,4S)-4-hydroxytetrahydrofuran-3-yl]-3-oxo-2,3-dihydropyridazine-4-carboxamide], the figures for the half-inhibitory concentration (IC50) (on AHR [1]; against AHR [2]; in data set [3] (setting [4])) were 4.05e-08 M, more than 2e-05 M and 4.47e-08 M, respectively.
The corresponding values for `O=C(N[C@H]1CCC[C@@H]1O)c1cc(-c2ccc(Cl)cc2)nn(-c2cccc(F)c2)c1=O` (relative stereo) [Example 123, 6-(4-Chlorophenyl)-2-(3-fluorophenyl)-N-(trans-2-hydroxycyclopentyl)-3-oxo-2,3-dihydropyridazine-4-carboxamide] are 3.63e-08 M, more than 2e-05 M and 9.77e-08 M.
With `O=C(N[C@H]1COC[C@@H]1O)c1cc(-c2ccc(Cl)cc2)nn(-c2cccc(F)c2)c1=O` (single isomer, unassigned) [Example 135, 6-(4-Chlorophenyl)-2-(3-fluorophenyl)-N-(trans-4-hydroxytetrahydrofuran-3-yl)-3-oxo-2,3-dihydropyridazine-4-carboxamide], the IC50 on AHR [1] was 1.41e-07 M; against AHR [2], more than 2e-05 M; in data set [3] (setting [4]), 1.32e-07 M.
